According to article PMC7179450, “Primary Human Hepatocytes, But not HepG2 or Balb/c 3T3 Cells, Efficiently Metabolize Salinomycin and Are Resistant to Its Cytotoxicity” (Molecules, 2020):
Like-named read-outs stand apart in the source and are kept apart here.

Tests used:
HepG2 cells = experiment: NRU assay in HepG2; type: cell-based, human; details: for EC50: Homo sapiens, read-out: EC50 (effective concentration)
Method: (§1) The HepG2 cell line was purchased from the American Type Culture Collection (ATCC® HB-8065™). The cells were cultured in Minimum Essential Medium Eagle (MEME) (Sigma–Aldrich Co. (St. Louis, MO, USA)). Normal murine embryonic fibroblasts, Balb/c 3T3 clone A31 cell line (gift from Department of Swine Diseases of the National Veterinary Research Institute in Pulawy) was cultured in Dulbecco’s Modified Eagle’s Medium (DMEM) (Invitrogen Corporations (Paisley, UK)). The media were supplemented with 10% BCS (Balb/c 3T3), 10% FBS (HepG2), 1% L-glutamine, and 1% antibiotic solution. The cells were maintained in 75 cm^2 cell culture flasks in humidified incubator at 37 °C, in an atmosphere of 5% CO2. The medium was refreshed every two or three days and the cells were trypsinized by 0.25% trypsin–0.02% EDTA after reaching 70–80% confluence. The initial cell viability was determined with the trypan blue exclusion test. Single cell suspensions were prepared and adjusted to a density of 2 × 10^5 cell/mL (HepG2) and 1 × 10^5 cell/mL (Balb/c 3T3). The cell suspension was transferred to 96-well plates (100 µL/well) and incubated for 24 h before exposure to the studied drugs.
(§2) The concentration ranges of the drugs were chosen according to their solubility and their plasma level. Each drug was dissolved in DMSO. The final concentration of DMSO was 0.1% or 0.2% in the medium for both samples and corresponding controls. […] All drug solutions in medium were freshly prepared and protected from light. SAL was tested in seven concentrations from 0.39 to 25 µg/mL. […] The cytotoxicity was assessed after 24 and 48 h of exposure of cell lines or after 12 and 24 h exposure of PHH. […]
(§3) The assay, based on staining of living cells by neutral red (NR), was performed according to the protocol described by Borenfreund and Puerner. […] After 10 min of shaking, the absorbance of the dissolved NR was measured at 540 nm using a blank as a reference. Cytotoxicity was expressed as a percentage of the negative control (0.1% or 0.2% DMSO).

[1] = system: primary human hepatocytes (PHH); experiment: LDH leakage assay in primary human hepatocytes; type: cell-based; details: Hepatocyte, mean ± SEM, n = 3, read-out: EC50 (effective concentration)
Method: (§4) Cryopreserved PHH were purchased from the Primacyt GmbH (Schwerin, Germany). Two different lots were chosen based on CYP activity. The donor was a person. The post-thaw viability was 94.6% for lot HH160531 (used in two repetitions) and 85.0% for lot HH130805. The initial cell viability was determined with the trypan blue exclusion test. The cells were thawed and purified using the Plating and Thawing Kit (Primacyt GmbH). Purified hepatocytes were resuspended in Hepatocyte Plating Medium (Primacyt GmbH) and seeded on collagen-coated 96-well plates at a density of 9 × 10^5 cell/mL and incubated at 37 °C with 5% CO2. After 6 h of incubation, the medium was removed and the cells were washed with PBS. Then Human Hepatocyte Maintenance Medium (HHMM) (Primacyt GmbH) with the studied drugs was added to hepatocytes (100 µL/well). […]
(§5) The concentration ranges of the drugs were chosen according to their solubility and their plasma level. […] The cytotoxicity was assessed after 24 and 48 h of exposure of cell lines or after 12 and 24 h exposure of PHH. […]
The integrity of the plasma membrane was assessed through the test of lactate dehydrogenase (LDH) release, which was monitored using a commercially available Cytotoxicity Detection Kit (LDH) (Roche Diagnostics, Basel, Switzerland). […] The absorbance was measured at 492 nm in a microplate reader using a blank as a reference.

turkeys = details: cited from earlier work
Balb/c 3T3 cells = experiment: MTT assay, cytotoxicity in Balb/c 3T3; type: cell-based; details: Mus musculus, BALB/c3T3, Balb/c 3T3, MTT, mean ± SEM, n = 3, read-out: EC50 (effective concentration)
Method: as §1, with “The medium was refreshed every two or three days and the cells were trypsinized by 0.25% trypsin–0.02% EDTA after reaching 70–80% confluence.” left out, “Single cell suspensions were prepared and adjusted to a density of 2 × 10^5 cell/mL (HepG2) and 1 × 10^5 cell/mL (Balb/c 3T3). The cell suspension was transferred to 96-well plates (100 µL/well) and incubated for 24 h before exposure to the studied drugs.” left out
as §5
(§6) The metabolic activity of living cells was assessed by measuring the activity of dehydrogenases. […] The plate was shaken for 15 min at room temperature and transferred to a microplate reader to measure the absorbance at 570 nm, using a blank as a reference. Cytotoxicity was expressed as a percentage of the negative control (0.1% or 0.2% DMSO).

PHH = experiment: Cytotoxicity battery (MTT, NRU, TPC, LDH) in PHH; type: cell-based, human; details: well tolerated at lower concentrations
Method: as §2, with “µg/mL. Tiamulin was added in two concentrations (1 and 10 µg/mL) or just one concentration (1 µg/mL) to cell lines or human hepatocytes, respectively. Prednisolone was tested in one concentration—1 µg/mL independent of the type of cells.” for “µg/mL.”
as §6
The assay, based on staining of living cells by neutral red (NR), was performed according to the protocol described by Borenfreund and Puerner. […] After 10 min of shaking, the absorbance of the dissolved NR was measured at 540 nm using a blank as a reference. […]

rats = details: cited from earlier work
[2] = system: primary human hepatocytes (PHH); experiment: NRU assay (neutral red uptake, lysosomal activity) in primary human hepatocytes; type: cell-based; details: for EC50: Homo sapiens, Hepatocyte, mean ± SEM, n = 3, read-out: EC50 (effective concentration)
Method: (§7) Cryopreserved PHH were purchased from the Primacyt GmbH (Schwerin, Germany). Two different lots were chosen based on CYP activity. The donor was a person. The post-thaw viability was 94.6% for lot HH160531 (used in two repetitions) and 85.0% for lot HH130805. The initial cell viability was determined with the trypan blue exclusion test. The cells were thawed and purified using the Plating and Thawing Kit (Primacyt GmbH). Purified hepatocytes were resuspended in Hepatocyte Plating Medium (Primacyt GmbH) and seeded on collagen-coated 96-well plates at a density of 9 × 10^5 cell/mL and incubated at 37 °C with 5% CO2. After 6 h of incubation, the medium was removed and the cells were washed with PBS. Then Human Hepatocyte Maintenance Medium (HHMM) (Primacyt GmbH) with the studied drugs was added to hepatocytes (100 µL/well). The culture conditions were kept according to the manufacturer’s protocol.
as §2, with “µg/mL. Tiamulin was added in two concentrations (1 and 10 µg/mL) or just one concentration (1 µg/mL) to cell lines or human hepatocytes, respectively. Prednisolone was tested in one concentration—1 µg/mL independent of the type of cells.” for “µg/mL.”
as §3

[3] = system: primary human hepatocytes (PHH); experiment: MTT assay, cytotoxicity in primary human hepatocytes; type: cell-based; details: Hepatocyte, mean ± SEM, n = 3, read-out: EC50 (effective concentration)
Method: as §4, §5, §6

[4] = system: primary human hepatocytes (PHH); experiment: TPC assay (total protein content) in primary human hepatocytes; type: cell-based; details: Hepatocyte, mean ± SEM, n = 3, read-out: EC50 (effective concentration)
Method: as §7
The concentration ranges of the drugs were chosen according to their solubility and their plasma level. Each drug was dissolved in DMSO. […] The cytotoxicity was assessed after 24 and 48 h of exposure of cell lines or after 12 and 24 h exposure of PHH. […]
The assay was based on staining total cellular protein [14]. […] The absorbance was measured at 595 nm in a microplate reader using blank as a reference. Cytotoxicity was expressed as a percentage of the negative control (0.1% or 0.2% DMSO).

CC[C@@H](C(=O)[C@@H](C)[C@@H](O)[C@H](C)[C@@H]1O[C@@H]([C@@H](CC)C(=O)O)CC[C@@H]1C)[C@H]1O[C@]2(C=C[C@@H](O)[C@]3(CC[C@@](C)([C@H]4CC[C@](O)(CC)[C@H](C)O4)O3)O2)[C@H](C)C[C@@H]1C [SAL, salinomycin]
lowest concentration with significant effect on lysosomal activity (HepG2 cells; HepG2, 24 h, SAL alone or in both drug combinations (Figure S2)): 0.39 µg/mL | EC50 (HepG2 cells; HepG2, 24 h): 0.6 ± 0.2 µg/mL | EC50 (HepG2 cells; HepG2, 48 h): < 0.39 µg/mL | EC50 ([1]; 12 h exposure): 12.9 ± 3.2 µg/mL | EC50 ([1]; 24 h exposure): 11.3 ± 0.7 µg/mL | LD50 (turkeys): 0.6 mg/kg b.w. | EC50 (Balb/c 3T3 cells; 24 h exposure): 10.4 ± 1.4 µg/mL | EC50 (Balb/c 3T3 cells; 48 h exposure): 4.3 ± 0.9 µg/mL | concentrations exerting toxic effects (PHH): > 10000 ng/mL | LD50 (rats): 50 mg/kg b.w. | EC50 ([2]; 12 h exposure): 20.4 ± 1.9 µg/mL | EC50 ([2]; 24 h exposure): 19.8 ± 1.6 µg/mL | concentration at which SAL first affected lysosomal activity ([2]; after 24 h (Figure S1)): 1.56 µg/mL | EC50 ([3]; 12 h exposure): > 25 µg/mL | EC50 ([3]; 24 h exposure): > 25 µg/mL | EC50 ([4]; 12 h exposure): > 25 µg/mL | EC50 ([4]; 24 h exposure): > 25 µg/mL
